From publication PMC5529658, “Antiproliferative and Antibacterial Activities of Cirsium scabrum from Tunisia” (Evidence-based Complementary and Alternative Medicine : eCAM, 2017)

Key:
Assay in all cases: Antimicrobial assay (MIC, agar dilution)
Type in all cases: cell-based
Conditions in all cases: amoxicillin
[1] = tested on: Corynebacterium striatum T40A3
Description: (§1) The antimicrobial activity of crude extract and partitions was evaluated against 36 pathogenic microorganisms (22 Gram-positive bacteria, 13 Gram-negative bacteria, and 1 yeast) according to Mahamodo et al.. The 36 microorganisms were grown overnight at 37°C on sloping Mueller-Hinton (MH) agar medium. Briefly, the bacteria were diluted with Ringer's Cysteine (RC) solution to obtain 10^6 bacteria/ml. […] Inocula of 10^4 colony forming units (CFU) were spotted ultimately with a multipoint inoculator (Steers Replicator).

[2] = tested on: Corynebacterium striatum T46C1
Description: as §1

[3] = tested on: Dermabacter hominis T47A7
Description: as §1

[4] = tested on: Dermabacter hominis T49B5
Description: as §1

[5] = tested on: Enterococcus faecalis T37B1
Description: as §1

[6] = tested on: Enterococcus faecalis T47A16
Description: as §1

Escherichia coli T20A2 = tested on: Escherichia coli T20A2
Description: as §1

[7] = tested on: Pseudomonas aeruginosa ATCC9027
Description: as §1

[8] = tested on: Pseudomonas aeruginosa T41
Description: as §1

[9] = tested on: Staphylococcus aureus 8142
Description: as §1

[10] = tested on: Staphylococcus aureus 8143
Description: as §1

[11] = tested on: Staphylococcus aureus 8148
Description: as §1

[12] = tested on: Staphylococcus aureus T11
Description: as §1

[13] = tested on: Staphylococcus aureus T21
Description: as §1

[14] = tested on: Staphylococcus aureus T2510
Description: as §1

[15] = tested on: Staphylococcus aureus T26A4
Description: as §1

[16] = tested on: Staphylococcus aureus T281
Description: as §1

[17] = tested on: Staphylococcus aureus T306
Description: as §1

[18] = tested on: Staphylococcus aureus T61
Description: as §1

[19] = tested on: Staphylococcus capitis T21A3
Description: as §1

[20] = tested on: Staphylococcus capitis T29A2
Description: as §1

[21] = tested on: Staphylococcus epidermidis T151
Description: as §1

[22] = tested on: Staphylococcus epidermidis T19A1
Description: as §1

[23] = tested on: Staphylococcus lugdunensis T36A1
Description: as §1

[24] = tested on: Staphylococcus lugdunensis T47B2
Description: as §1

[25] = tested on: Staphylococcus pettenkoferi T282
Description: as §1

[26] = tested on: Staphylococcus pettenkoferi T33
Description: as §1

[27] = tested on: Staphylococcus saprophyticus 8237
Description: as §1

[28] = tested on: Streptococcus agalactiae T53A4
Description: as §1

Structure (SMILES): CC1(C)S[C@@H]2[C@H](NC(=O)[C@H](N)c3ccc(O)cc3)C(=O)N2[C@H]1C(=O)O [Amox, amoxicillin]
- Reference antibiotics MIC values [1]: R (R: >16)
- Reference antibiotics MIC values [2]: S (Amox (amoxicillin), S: ≤4)
- Reference antibiotics MIC values [3]: R (R: >16)
- Reference antibiotics MIC values [4]: S (Amox (amoxicillin), S: ≤4)
- Reference antibiotics MIC values [5]: S (Amox (amoxicillin), S: ≤4)
- Reference antibiotics MIC values [6]: R (R: >16)
- Reference antibiotics MIC values (Escherichia coli T20A2): S (Amox (amoxicillin), S: ≤4)
- Reference antibiotics MIC values [7]: R (R: >16)
- Reference antibiotics MIC values [8]: R (R: >16)
- Reference antibiotics MIC values [9]: R (R: >16)
- Reference antibiotics MIC values [10]: S (Amox (amoxicillin), S: ≤4)
- Reference antibiotics MIC values [11]: R (R: >16)
- Reference antibiotics MIC values [12]: R (R: >16)
- Reference antibiotics MIC values [13]: R (R: >16)
- Reference antibiotics MIC values [14]: R (R: >16)
- Reference antibiotics MIC values [15]: R (R: >16)
- Reference antibiotics MIC values [16]: R (R: >16)
- Reference antibiotics MIC values [17]: S (Amox (amoxicillin), S: ≤4)
- Reference antibiotics MIC values [18]: R (R: >16)
- Reference antibiotics MIC values [19]: S (Amox (amoxicillin), S: ≤4)
- Reference antibiotics MIC values [20]: S (Amox (amoxicillin), S: ≤4)
- Reference antibiotics MIC values [21]: R (R: >16)
- Reference antibiotics MIC values [22]: S (Amox (amoxicillin), S: ≤4)
- Reference antibiotics MIC values [23]: S (Amox (amoxicillin), S: ≤4)
- Reference antibiotics MIC values [24]: S (Amox (amoxicillin), S: ≤4)
- Reference antibiotics MIC values [25]: S (Amox (amoxicillin), S: ≤4)
- Reference antibiotics MIC values [26]: R (R: >16)
- Reference antibiotics MIC values [27]: S (Amox (amoxicillin), S: ≤4)
- Reference antibiotics MIC values [28]: R (R: >16)
